Assay [1] has as its target T1, N-terminal His-tagged TYK2 pseudokinase domain (Homo sapiens, UniProt P29597).
T1 construct: the N-terminal His-tagged TYK2 pseudokinase domain; His (N); purchased Pharmaron
In words: TYK2 JH2 domain SPA binding assay. The conditions noted are these: displacement of H3 probe (20 nM), 30 min room temperature; class symbols. The procedure: TYK2 JH2 Domain Binding Assay
After incubating at room temperature for 30 min, the inhibition was calculated by the displacement of [3H] 3 binding as determined by scintillation counting. Dose-response curves were generated to determine the concentration required to inhibit H3 probe binding by […] (IC50).

Assay [2] relates to IL-23 induced STAT3 in HEK-Blue™ IL-23 cells. The assay can be described thus: IL-23 induced STAT3 QUANTI-Blue reporter assay in HEK-Blue IL-23 cells. The conditions noted are these: IL-23 0.1 ng/mL, SEAP levels, class symbols, read-out: IL23 reporter assay (IC50 nM). The assay is classed as cell-based. The procedure: Biological Example 2. IL-23 Induced STAT3 QUANTI-Blue in HEK-Blue™ IL-23 Cells
HEK-Blue™ IL-23 cells were prepared at 2×10^5 cells/ml for adding 5000 cell/well and incubate plates containing compounds+cells for 1 hour at 37° C. Prepare IL-23 (treatment at final conc. 0.1 ng/mL) during incubation and add 2 ul per well of prepared cytokine in media to appropriate wells. The plate is incubated for overnight at 37° C. The next day, QUANTI-Blue solution is prepared. 18 ul of QUANTI-Blue solution per well is added into a new 384-well clear flat bottom plate, then add 2 ul of induced and treated HEK-Blue cell supernatant from overnight plate. Incubate the plate at 37° C. for 2 hours and determine SEAP levels.
(In general: In a reporter assay the amount or activity of a reporter protein is the signal.)

Setting [3] is: HEK-Blue IL-23, HEK-Blue IL-23 cells.

Like-named read-outs stand apart in the source and are kept apart here.

T1 sequence (P29597 589-875 limits assumed): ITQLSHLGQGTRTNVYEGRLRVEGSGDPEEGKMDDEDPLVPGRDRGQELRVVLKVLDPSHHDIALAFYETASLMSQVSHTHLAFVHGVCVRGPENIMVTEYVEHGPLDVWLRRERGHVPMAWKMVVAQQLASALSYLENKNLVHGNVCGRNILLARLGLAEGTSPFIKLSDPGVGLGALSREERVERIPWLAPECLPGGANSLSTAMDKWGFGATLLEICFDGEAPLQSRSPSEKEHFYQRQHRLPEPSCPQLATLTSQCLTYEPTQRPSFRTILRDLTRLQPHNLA

For the molecule `[2H]C([2H])([2H])n1ccc(-n2cccc(Nc3cc(NC)c4ncc(C(=O)N[C@@H]5C[C@@H]5F)n4n3)c2=O)n1` [Compound 58], the IC50 in assay [1] and in assay [2] (setting [3]) was 10 to 100 nM each time.
As for `CNc1cc(Nc2cccn(-c3ccccn3)c2=O)nn2c(C(=O)NC3CCC4CCOC43)cnc12` (racemic) [Compound 10a, N-(hexahydro-2H-cyclopenta[b]furan-6-yl)-8-(methylamino)-6-((2-oxo-2H-[1,2′-bipyridin]-3-yl)amino)imidazo[1,2-b]pyridazine-3-carboxamide], the 50% inhibitory concentration (IC50) in assay [1] and in assay [2] (HEK-Blue IL-23 cells) was 10 to 100 nM throughout.
For `CNc1cc(Nc2cccn(C3CCC4(CC3)COC4)c2=O)nn2c(C(=O)N[C@@H]3C[C@H]4CCO[C@H]43)cnc12` [Compound 12, N-((1R,5S,7R)-2-oxabicyclo[3.2.0]heptan-7-yl)-8-(methylamino)-6-((2-oxo-1-(2-oxaspiro[3.5]nonan-7-yl)-1,2-dihydropyridin-3-yl)amino)imidazo[1,2-b]pyridazine-3-carboxamide], the half-inhibitory concentration (IC50) in assay [1] and in assay [2] (setting [3]) was less than 10 nM in each case.
Consider `CNc1cc(Nc2cccc3c2OCCC3)nn2c(C(=O)NC(C)c3ncco3)cnc12` (single isomer, unassigned) [Compound 22b], for which the concentration for half-maximal inhibition (IC50) in assay [1] and in assay [2] (HEK-Blue IL-23 cells) was less than 10 nM throughout.
As for `[2H]C([2H])([2H])Nc1cc(Nc2cccn([C@H]3CC[C@@H](OC([2H])([2H])[2H])CC3)c2=O)nn2c(C(=O)N[C@@H]3C[C@@H]3F)cnc12` [Compound 72], the 50% inhibitory concentration (IC50) in assay [1] is 10 to 100 nM; in assay [2] (setting [3]), less than 10 nM.
For `CNc1cc(Nc2cccn([C@H]3C[C@H](OC)C3)c2=O)nn2c(C(=O)N[C@@H]3C[C@H]4CCO[C@H]43)cnc12` [Compound 82], the values for the half-inhibitory concentration (IC50) in assay [1] and in assay [2] (setting [3]) were 10 to 100 nM and less than 10 nM, respectively.
The corresponding values for `CNc1cc(Nc2cccn([C@H]3C[C@H](OC)C3)c2=O)nn2c(C(=O)N[C@@H]3C[C@@H]3F)cnc12` [Compound 99] are 10 to 100 nM and 10 to 100 nM.
For the molecule `[2H]C([2H])([2H])Nc1cc(Nc2cccn(C3CC4(CCOC4)C3)c2=O)nc2c(C(=O)N[C@@H]3C[C@@H]3F)cnn12` (single isomer, unassigned) [Compound 103b], the IC50 in assay [1] lay in the range of 100 to 1000 nM; in assay [2] (HEK-Blue IL-23 cells) it was 10 to 100 nM.
The corresponding values for `CNc1cc(Nc2cccn([C@H]3C[C@H](OC)C3)c2=O)nn2c(C(=O)NC3CCC4CCOC43)cnc12` (single isomer, unassigned) [Compound 88a] are 10 to 100 nM and less than 10 nM.
As to `[2H]C([2H])([2H])Nc1cc(Nc2cccn(C3CC4OCCC43)c2=O)nn2c(C(=O)N[C@@H]3C[C@@H]3F)cnc12` (single isomer, unassigned) [Compound 101a], the IC50 in assay [1] and in assay [2] (setting [3]) was 10 to 100 nM in each case.
Take `CNc1cc(Nc2cccn(C3C[C@H]4CC[C@@H](C3)O4)c2=O)nn2c(C(=O)N[C@@H]3C[C@H]4CCO[C@H]43)cnc12` (stereo partly drawn) [Compound 13, 6-((1-(cis-8-oxabicyclo[3.2.1]octan-3-yl)-2-oxo-1,2-dihydropyridin-3-yl)amino)-N-((1R,5S,7R)-2-oxabicyclo[3.2.0]heptan-7-yl)-8-(methylamino)imidazo[1,2-b]pyridazine-3-carboxamide]: the IC50 in assay [1] was 10 to 100 nM; in assay [2] (setting [3]), less than 10 nM.
As to `CNc1cc(Nc2cccc3c2OCCC3)nn2c(C(=O)N[C@@H]3C[C@H]4CCO[C@H]43)cnc12` (racemic) [Compound 25], the IC50 in assay [1] and in assay [2] (setting [3]) was less than 10 nM each time.
On to `[2H]c1onc2c1CCC2NC(=O)c1cnn2c(NC)cc(Nc3cccn(-c4ccccn4)c3=O)nc12` (racemic) [Compound 38], for which the concentration for half-maximal inhibition (IC50) in assay [1] is 10 to 100 nM; in assay [2] (setting [3]), less than 10 nM.
The corresponding values for `CNc1cc(Nc2cccn(-c3nn(C)cc3F)c2=O)nn2c(C(=O)N[C@@H]3C[C@H]4CCO[C@H]43)cnc12` [Compound 54] are 10 to 100 nM and less than 10 nM.
In the case of `[2H]C([2H])([2H])Nc1cc(Nc2cccn(C3CC4(CCCO4)C3)c2=O)nn2c(C(=O)N[C@@H]3C[C@@H]3F)cnc12` (single isomer, unassigned) [Compound 104b], the IC50 in assay [1] and in assay [2] (HEK-Blue IL-23 cells) was 10 to 100 nM in each case.
In the case of `CNc1cc(Nc2cccn(-c3ccccc3)c2=O)nn2c(C(=O)NC3CCn4ncnc43)cnc12` (racemic) [Compound 47], the 50% inhibitory concentration (IC50) in assay [1] was 10 to 100 nM; in assay [2] (setting [3]), less than 10 nM.
Turning to `[2H]C([2H])([2H])Nc1cc(Nc2cccn(-c3ncccc3F)c2=O)nn2c(C(=O)N[C@@H]3C[C@H]4CCO[C@H]43)cnc12` [Compound 5, N-((1R,5S,7R)-2-oxabicyclo[3.2.0]heptan-7-yl)-6-((3′-fluoro-2-oxo-2H-[1,2′-bipyridin]-3-yl)amino)-8-((methyl-d3)amino)imidazo[1,2-b]pyridazine-3-carboxamide], the IC50 is 10 to 100 nM in assay [1] and less than 10 nM in assay [2] (setting [3]).
As for `[2H]C([2H])([2H])Nc1cc(Nc2cccn(C3CCCC4(COC4)C3)c2=O)nn2c(C(=O)N[C@@H]3C[C@H]4CCO[C@H]43)cnc12` (single isomer, unassigned) [Compound 68b], the concentration for half-maximal inhibition (IC50) was 10 to 100 nM in assay [1] and less than 10 nM in assay [2] (HEK-Blue IL-23 cells).
Regarding `[2H]C([2H])([2H])O[C@H]1C[C@@H](n2cccc(Nc3cc(NC)c4ncc(C(=O)N[C@@H]5C[C@H]6CCO[C@H]65)n4n3)c2=O)C1` [Compound 86], the half-maximal inhibitory concentration (IC50) in assay [1] and in assay [2] (setting [3]) was 10 to 100 nM throughout.
`CNc1cc(Nc2cccn(-c3ccccn3)c2=O)nn2c(C(=O)NC(C)c3ncco3)cnc12` (racemic) [Compound 34]: the IC50 in assay [1] and in assay [2] (setting [3]) was 10 to 100 nM throughout.
Regarding `[2H]C([2H])([2H])Nc1cc(Nc2cccn(C3CC4OCCC43)c2=O)nn2c(C(=O)N[C@@H]3C[C@@H]3F)cnc12` (single isomer, unassigned) [Compound 101b], the half-maximal inhibitory concentration (IC50) in assay [1] and in assay [2] (HEK-Blue IL-23 cells) was 10 to 100 nM throughout.
As to `[2H]C([2H])([2H])Nc1cc(Nc2cccn(C3CC4OCCC43)c2=O)nn2c(C(=O)N[C@@H]3C[C@H]4CCO[C@H]43)cnc12` (single isomer, unassigned) [Compound 94a], the IC50 in assay [1] and in assay [2] (setting [3]) was 10 to 100 nM throughout.
Regarding `CNc1cc(Nc2cccn(C3C[C@H]4CC[C@@H](C3)O4)c2=O)nc2c(C(=O)N[C@@H]3C[C@@H]3F)cnn12` (some centres unmarked) [Compound 81], the half-maximal inhibitory concentration (IC50) in assay [1] and in assay [2] (setting [3]) was 10 to 100 nM each time.
On to `CNc1cc(Nc2cccc(N3CCCC3=O)n2)nn2c(C(=O)NC(C)c3ncco3)cnc12` (racemic) [Compound 28], for which the IC50 was 10 to 100 nM in assay [1] and less than 10 nM in assay [2] (setting [3]).
`[2H]C([2H])([2H])Nc1cc(Nc2cccn(-c3ccn(C)n3)c2=O)nn2c(C(=O)N[C@@H]3C[C@H]4CCO[C@H]43)cnc12` [Compound 52]: the IC50 in assay [1] and in assay [2] (setting [3]) was less than 10 nM in each case.
`CNc1cc(Nc2cccn(CC3CCCO3)c2=O)nn2c(C(=O)N[C@@H]3C[C@H]4CCO[C@H]43)cnc12` (single isomer, unassigned) [Compound 62b]: the IC50 in assay [1] and in assay [2] (HEK-Blue IL-23 cells) was 10 to 100 nM each time.
Turning to `[2H]C([2H])([2H])Nc1cc(Nc2cccn([C@H]3C[C@H](OC(F)(F)F)C3)c2=O)nn2c(C(=O)N[C@@H]3C[C@H]4CCO[C@H]43)cnc12` [Compound 89], the half-inhibitory concentration (IC50) in assay [1] and in assay [2] (setting [3]) was 10 to 100 nM throughout.
In the case of `[2H]C([2H])([2H])Nc1cc(Nc2cccn(-c3ccccn3)c2=O)nc2c(C(=O)NC(C)c3ncco3)cnn12` (racemic) [Compound 35], the IC50 in assay [1] and in assay [2] (setting [3]) was 10 to 100 nM throughout.
With `CNc1cc(Nc2cccc3c2OCCC3)nc2c(C(=O)NC(C)c3ncco3)cnn12` (single isomer, unassigned) [Compound 23a], the figures for the IC50 in assay [1] and in assay [2] (HEK-Blue IL-23 cells) were 100 to 1000 nM and no less than 1000 nM, respectively.
Regarding `CNc1cc(Nc2cccn(-c3ccccn3)c2=O)nn2c(C(=O)NC3CCc4scnc43)cnc12` (centres unmarked) [Compound 9, N-(5,6-dihydro-4H-cyclopenta[d]thiazol-4-yl)-8-(methylamino)-6-((2-oxo-2H-[1,2′-bipyridin]-3-yl)amino)imidazo[1,2-b]pyridazine-3-carboxamide], the IC50 in assay [1] and in assay [2] (setting [3]) was less than 10 nM throughout.
For the molecule `[2H]C([2H])([2H])Nc1cc(Nc2cccn([C@H]3CC[C@@H](OC([2H])([2H])[2H])CC3)c2=O)nn2c(C(=O)N[C@@H]3C[C@H]4CCO[C@H]43)cnc12` [Compound 64], the IC50 in assay [1] and in assay [2] (setting [3]) was 10 to 100 nM each time.
Take `CNc1cc(Nc2cccn([C@H]3CC[C@@H](OC)CC3)c2=O)nn2c(C(=O)N[C@@H]3C[C@@H]3F)cnc12` [Compound 70]: the IC50 in assay [1] and in assay [2] (setting [3]) was 10 to 100 nM in each case.
For `CNc1cc(Nc2cccn(C3CC4CCOC43)c2=O)nn2c(C(=O)N[C@@H]3C[C@@H]3F)cnc12` (single isomer, unassigned) [Compound 105c], the half-inhibitory concentration (IC50) in assay [1] and in assay [2] (HEK-Blue IL-23 cells) was 10 to 100 nM in each case.
Take `CNc1cc(Nc2cccn(-c3ccccn3)c2=O)nc2c(C(=O)NC(C)c3ncco3)cnn12` (single isomer, unassigned) [Compound 36b]: the 50% inhibitory concentration (IC50) in assay [1] and in assay [2] (HEK-Blue IL-23 cells) was 10 to 100 nM each time.

Usually IC50 stands for the concentration needed to halve the response being measured.

The values above are taken from US20240335443A1, “IMIDAZOLOPYRIDAZINE OR PYRAZOLOPYRIMIDINE COMPOUNDS AND COMPOSITIONS” (Anrui Biomedical Technology (Guangzhou) Co., Ltd., priority 2021, published 2024).
